Assay results reported in US20250134890A1, “ANTIMALARIAL HEXAHYDROPYRIMIDINE ANALOGUES” (UCB BIOPHARMA SRL, priority 2022, published 2025).
pIC50: −log10 of the molar value. Where a name gives a salt, the structure may show the parent alone. Read-outs that look alike come from different tables or passages of the source.

Test system: Plasmodium falciparum: 3D7 strain
Assay: P. falciparum 3D7 asexual blood stage assay (SYBR green readout)
Assay type: cell-based
Conditions: P. falciparum 3D7 in human erythrocytes, 72 h incubation, SYBR green fluorescence
Text: The compounds of the present invention are potent inhibitors of the growth and propagation of the Plasmodium falciparum parasite in human blood.
The assay used to measure the effect of test compounds on a bloodstream stage of Plasmodium falciparum: 3D7 strain employs SYBR green as the readout. This is a dye that binds to double stranded deoxyribonucleic acid (DNA) with a resulting increase in fluorescence, allowing detection of P. falciparum DNA in infected erythrocytes, and thereby providing a measure of parasite growth and propagation.
Erythrocytes (A+blood) were prepared for both parasite culture and assay by washing 4 times with incomplete media (15.9 g RPMI 1640 (25 mM HEPES, L-glutamine), 1 g NaHCO3, 2 g glucose, 400 μL gentacin (500 mg/mL), 2 mL hypoxanthine solution (13.6 g/L in 0.1M NaOH pH 7.3) in 1 litre of media). The cells were centrifuged at 1800 g for 5 minutes, before decanting the supernatant and re-suspending in fresh incomplete media. On the final wash, the cells were re-suspended in complete media (incomplete media with 5 g/L AlbumaxII), and centrifuged at 1800 g for 3 minutes. This cell sediment was treated as 100% haematocrit.
P. falciparum 3D7 was cultured in erythrocytes at 5% haematocrit in complete media at 37° C. (1% O2, 3% CO2, balance N2). Cultures were split on a weekly basis to achieve a 1% parasitaemia in erythrocites at 5% haematocrit in fresh media. Culture media is replaced by fresh media every other day (2 times during the week).
On day 1, test compounds were added to assay plates using Echo dispensing technology ([…] and 20 points titration). 50 nL of each compound dilution was added to 50 μL of culture (5% haematocrit, 0.5% parasitaemia) and incubated for 72 h at 37° C. (1% O2, 3% CO2, balance N2). Final concentrations of test compounds ranged from 50,000 nM to 15 nM, in […].
On day 4, 10 μL SYBR green (Invitrogen S7563 supplied as 10,000×concentrate in DMSO) pre-diluted to 3×concentrate with Lysis buffer (20 mM Tris pH 7.9, 5% EDTA, 0.16% w/v, 1.6% TX100 v/v) was added to the cultures and incubated in the dark, overnight, at room temperature.
On day 5, fluorescent signal was measured using a BioTek plate reader (excitation 485 nm, emission 528 nm). All data were processed using IDBS ActivityBase. Raw data were converted into percent inhibition through linear regression by setting the high inhibition control (mefloquine) as 100% and the no inhibition control (DMSO) as 0%. Quality control criteria for passing plates were as follows: Z′>0.5, S:B>3, % CV(no inhibition control)<15. The formula used to calculate Z′ is: […]
All EC50 curve fitting was undertaken using the following bi-phasic two site dose response using XLfit model 300 (IDBS):
where A=100 minus the top of the upper curve 1 and the bottom of lower curve; B=Hill slope; log(C)=IC50 concentration at lower site; log(D)=IC50 concentration at upper site; x=inhibitor concentration; and y=% inhibition.

[1] = Plasmodium falciparum, 3D7, Erythrocyte, 72 h
[2] = Plasmodium falciparum, Erythrocyte, read-out: IC50

Row | SMILES | pIC50 [1] | also measured
1 | C[C@@]1(c2cccc(-c3ccc(F)cc3F)c2Cl)CC(=O)N([C@@H]2CCC(F)(F)[C@H](O)C2)C(=N)N1 (relative stereo) [Example 97, (6S)-6-[2-Chloro-3-(2,4-difluoro-phenyl)phenyl]-3-[(1R*,3R*)-4,4-difluoro-3-hydroxycyclohexyl]-2-imino-6-methylhexahydro-pyrimidin-4-one hydrochloride] | 6.55 | 
2 | C[C@@]1(c2cccc(-c3ccc(C4CC4)nc3)c2Cl)CC(=O)N([C@@H]2CCC(F)(F)[C@H](O)C2)C(=N)N1 (relative stereo) [Example 98, (6S)-6-[2-Chloro-3-(6-cyclopropyl-pyridin-3-yl)phenyl]-3-[(1R*,3R*)-4,4-difluoro-3-hydroxycyclohexyl]-2-imino-6-methylhexahydro-pyrimidin-4-one hydrochloride] | 6.53 | 
3 | C[C@@]1(c2cccc(-c3ccc(C4CC4)nc3)c2Cl)CC(=O)N([C@H]2CCC(F)(F)[C@@H](O)C2)C(=N)N1 (relative stereo) [Example 99, (6S)-6-[2-Chloro-3-(6-cyclopropyl-pyridin-3-yl)phenyl]-3-[(1S*,3S*)-4,4-difluoro-3-hydroxycyclohexyl]-2-imino-6-methylhexahydro-pyrimidin-4-one hydrochloride] | 5.71 | 
4 | C[C@H]1C[C@@H](N2C(=N)N[C@](C)(c3cccc(-c4cccc(Cl)c4)c3Cl)CC2=O)CCN1 (relative stereo) [Example 100, (6S)-6-[2-Chloro-3-(3-chloro-phenyl)phenyl]-2-imino-6-methyl-3-[(2S*,4S*)-2-methylpiperidin-4-yl]hexahydropyrimidin-4-one hydrochloride] | 6.43 | 
5 | C[C@@H]1C[C@H](N2C(=N)N[C@](C)(c3cccc(-c4cccc(Cl)c4)c3Cl)CC2=O)CCN1 (relative stereo) [Example 101, (6S)-6-[2-Chloro-3-(3-chloro-phenyl)phenyl]-2-imino-6-methyl-3-[(2R*,4R*)-2-methylpiperidin-4-yl]hexahydropyrimidin-4-one hydrochloride] | 6.41 | 
6 | C[C@H]1C[C@@H](N2C(=N)N[C@](C)(c3cccc(-c4ccc(F)cc4F)c3Cl)CC2=O)CCN1 (relative stereo) [Example 102, (6S)-6-[2-Chloro-3-(2,4-difluoro-phenyl)phenyl]-2-imino-6-methyl-3-[(2S*,4S*)-2-methylpiperidin-4-yl]hexahydropyrimidin-4-one hydrochloride] | 6.30 | 
7 | C[C@@H]1C[C@H](N2C(=N)N[C@](C)(c3cccc(-c4ccc(F)cc4F)c3Cl)CC2=O)CCN1 (relative stereo) [Example 103, (6S)-6-[2-Chloro-3-(2,4-difluoro-phenyl)phenyl]-2-imino-6-methyl-3-[(2R*,4R*)-2-methylpiperidin-4-yl]hexahydropyrimidin-4-one hydrochloride] | 6.13 | 
8 | C[C@@H]1C[C@H](N2C(=N)N[C@](C)(c3cccc(-c4cccc(Cl)c4)c3Cl)CC2=O)CC[C@H]1O (relative stereo) [Example 104, (6S)-6-[2-Chloro-3-(3-chloro-phenyl)phenyl]-3-[(1S*,3S*,4S*)-4-hydroxy-3-methylcyclohexyl]-2-imino-6-methylhexahydro-pyrimidin-4-one hydrochloride] | 5.31 | 
9 | C[C@H]1C[C@@H](N2C(=N)N[C@](C)(c3cccc(-c4cccc(Cl)c4)c3Cl)CC2=O)CC[C@@H]1O (relative stereo) [Example 105, (6S)-6-[2-Chloro-3-(3-chloro-phenyl)phenyl]-3-[(1R*,3R*,4R*)-4-hydroxy-3-methylcyclohexyl]-2-imino-6-methylhexahydro-pyrimidin-4-one hydrochloride] | 5.81 | 
10 | C[C@H]1C[C@@H](N2C(=N)N[C@](C)(c3cccc(-c4ccc(F)cc4F)c3Cl)CC2=O)CCN1C (relative stereo) [Example 106, (6S)-6-[2-Chloro-3-(2,4-difluoro-phenyl)phenyl]-3-[(2S*,4S*)-1,2-dimethylpiperidin-4-yl]-2-imino-6-methylhexahydropyrimidin-4-one hydrochloride] | 7.03 | 
11 | C[C@@H]1C[C@H](N2C(=N)N[C@](C)(c3cccc(-c4ccc(F)cc4F)c3Cl)CC2=O)CCN1C (relative stereo) [Example 107, (6S)-6-[2-Chloro-3-(2,4-difluoro-phenyl)phenyl]-3-[(2R*,4R*)-1,2-dimethylpiperidin-4-yl]-2-imino-6-methylhexahydropyrimidin-4-one hydrochloride] | 6.64 | 
12 | C[C@@]1(c2cccc(-c3cn(-c4cccc(F)c4)nn3)c2Cl)CC(=O)N([C@H]2CCC(F)(F)[C@@H](O)C2)C(=N)N1 (relative stereo) [Example 108, (6S)-6-{2-Chloro-3-[1-(3-fluoro-phenyl)-1,2,3-triazol-4-yl]phenyl}-3-[(1S*,3S*)-4,4-difluoro-3-hydroxycyclohexyl]-2-imino-6-methylhexahydropyrimidin-4-one hydrochloride] | 6.49 | 
13 | C[C@H]1C[C@@H](N2C(=N)N[C@](C)(c3cccc(-c4cn(-c5cc(F)c(F)cc5F)nn4)c3Cl)CC2=O)CC[C@H]1O (relative stereo) [Example 112, (6S)-6-{2-Chloro-3-[1-(2,4,5-trifluorophenyl)-1,2,3-triazol-4-yl]-phenyl}-3-[(1S*,3S*,4R*)-4-hydroxy-3-methylcyclohexyl]-2-imino-6-methylhexahydro-pyrimidin-4-one hydrochloride] | 6.88 | 
14 | C[C@@H]1C[C@H](N2C(=N)N[C@](C)(c3cccc(-c4cn(-c5cc(F)c(F)cc5F)nn4)c3Cl)CC2=O)CC[C@@H]1O (relative stereo) [Example 113, (6S)-6-{2-Chloro-3-[1-(2,4,5-trifluorophenyl)-1,2,3-triazol-4-yl]-phenyl}-3-[(1R*,3R*,4S*)-4-hydroxy-3-methylcyclohexyl]-2-imino-6-methylhexahydro-pyrimidin-4-one hydrochloride] | 6.27 | 
15 | C[C@H]1C[C@@H](N2C(=N)N[C@](C)(c3cccc(-c4cccc(C(O)C(F)F)c4)c3Cl)CC2=O)CCO1 (single isomer, unassigned) [Example 25, (6S)-6-(2-Chloro-3-{3-[(1R*)-2,2-difluoro-1-hydroxyethyl]phenyl}-phenyl)-2-imino-6-methyl-3-[(2S,4S)-2-methyltetrahydropyran-4-yl]hexahydropyrimidin-4-one hydrochloride] | 7.42 | 
16 | C[C@H]1C[C@@H](N2C(=N)N[C@](C)(c3cccc(-c4cccc(C(O)C(F)F)c4)c3Cl)CC2=O)CCO1 (single isomer, unassigned) [Example 26, (6S)-6-(2-Chloro-3-{3-[(1S*)-2,2-difluoro-1-hydroxyethyl]phenyl}-phenyl)-2-imino-6-methyl-3-[(2S,4S)-2-methyltetrahydropyran-4-yl]hexahydropyrimidin-4-one hydrochloride] |  | pIC50 (hydrochloride): 7.26
17 | C[C@H]1C[C@@H](N2C(=N)N[C@](C)(c3cccc(-c4cccc(C(O)C(F)(F)F)c4)c3Cl)CC2=O)CCO1 (single isomer, unassigned) [Example 28, (6S)-6-(2-Chloro-3-{3-[(1S*)-2,2,2-trifluoro-1-hydroxyethyl]phenyl}-phenyl)-2-imino-6-methyl-3-[(2S,4S)-2-methyltetrahydropyran-4-yl]hexahydropyrimidin-4-one hydrochloride] | 7.59 | 
18 | C[C@@]1(c2cccc(-c3cccc(Cl)c3)c2Cl)CC(=O)N(C(CO)C2CC2)C(=N)N1 (single isomer, unassigned) [Example 94, (6S)-6-[2-Chloro-3-(3-chloro-phenyl)phenyl]-3-[(1R*)-1-cyclopropyl-2-hydroxyethyl]-2-imino-6-methylhexahydro-pyrimidin-4-one hydrochloride] | 7.06 | 
19 | CN(C)[C@H]1C[C@H](N2C(=N)N[C@](C)(c3cccc(-c4ccc(F)cc4F)c3Cl)CC2=O)C1 (single isomer, unassigned; isomer 1) [Example 88] |  | pIC50 [2]: 6.18
20 | CN(C)[C@H]1C[C@@H](N2C(=N)N[C@](C)(c3cccc(-c4ccc(F)cc4F)c3Cl)CC2=O)C1 (single isomer, unassigned; isomer 2) [Example 89] |  | pIC50 [2]: 5.10
